The record followed here is ChEMBL document CHEMBL1201862, “PubChem BioAssay data set” (2004).

The source made the active and inactive calls.

Assay [1] deals with Ephrin type-A receptor 4 (Mus musculus, UniProt Q03137). In words: inhibitors of EphA4 binding to KYL peptide, primary screen, biochemical, colorimetric, mouse EphA4 (AID 689). The format is functional.
The nature of assay [2]: P. falciparum Dd2 growth inhibitors, dose response, SYBR Green, cherry-picked samples (AID 1159567). The format is functional, cell-based.
Assay [3] can be described thus: HepG2 cell cytotoxicity, dose response, cytotoxicity control, cherry-picked samples (AID 1159577). It is filed as functional, cell-based.
Assay [4] concerns the target Bifunctional protein GlmU (Mycobacterium tuberculosis, UniProt P9WMN3). In words: Inhibitors of Mycobacterial Glucosamine-1-phosphate acetyl transferase (GlmU). Secondary screen. Also on record: species or system Mycobacterium tuberculosis H37Rv.
For assay [5], the target named is T1, RNA-binding protein pos-1 (Caenorhabditis elegans, UniProt G5EF15).
T1 sequence (G5EF15 whole entry): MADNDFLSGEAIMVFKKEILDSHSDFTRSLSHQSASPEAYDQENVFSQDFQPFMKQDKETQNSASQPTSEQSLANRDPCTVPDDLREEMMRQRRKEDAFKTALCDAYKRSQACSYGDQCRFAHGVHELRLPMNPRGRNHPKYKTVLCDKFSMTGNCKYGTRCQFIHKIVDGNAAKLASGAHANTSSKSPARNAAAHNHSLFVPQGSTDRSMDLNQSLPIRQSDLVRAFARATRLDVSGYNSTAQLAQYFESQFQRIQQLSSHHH
The experiment in a line: inhibitors of POS-1/mex-3 RNA binding, dose response, biochemical, fluorescence polarization (AID 1964).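 Further: purified POS-1 fused to maltose binding protein made in E. coli; potency of compounds blocking POS-1 binding to fluorescent RNA.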 Background: Fluorescence polarisation rises when a labelled molecule tumbles more slowly, as on binding a larger partner.

Assay [6] deals with T2, Zinc finger protein mex-5 (Caenorhabditis elegans, UniProt Q9XUB2).
T2 sequence (Q9XUB2 whole entry): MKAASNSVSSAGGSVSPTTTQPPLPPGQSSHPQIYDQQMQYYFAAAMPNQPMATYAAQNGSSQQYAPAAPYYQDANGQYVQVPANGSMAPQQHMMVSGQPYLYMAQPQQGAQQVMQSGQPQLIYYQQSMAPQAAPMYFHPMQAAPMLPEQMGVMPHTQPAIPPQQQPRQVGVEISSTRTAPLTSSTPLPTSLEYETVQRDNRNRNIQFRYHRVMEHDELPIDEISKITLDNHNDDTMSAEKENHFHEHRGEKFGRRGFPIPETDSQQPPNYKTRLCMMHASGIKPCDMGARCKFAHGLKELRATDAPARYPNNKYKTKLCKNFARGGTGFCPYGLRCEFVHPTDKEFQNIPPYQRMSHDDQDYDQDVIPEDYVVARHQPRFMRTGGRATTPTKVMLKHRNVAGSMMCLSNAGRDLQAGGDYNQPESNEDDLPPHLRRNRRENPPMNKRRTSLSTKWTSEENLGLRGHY
In words: MEX-5/TCR-2 RNA interaction inhibitors, dose response, biochemical, C. elegans, fluorescence polarization (AID 1960).

Assay [7] in a line: Luminescence-based cell-based high throughput dose response assay to identify activators of the DAF-12 from the parasite S. stercoralis (ssDAF-12). The format is functional.
For assay [8], the target named is T3, Oxysterols receptor LXR-beta (Homo sapiens, UniProt P55055).
T3 sequence (P55055 whole entry): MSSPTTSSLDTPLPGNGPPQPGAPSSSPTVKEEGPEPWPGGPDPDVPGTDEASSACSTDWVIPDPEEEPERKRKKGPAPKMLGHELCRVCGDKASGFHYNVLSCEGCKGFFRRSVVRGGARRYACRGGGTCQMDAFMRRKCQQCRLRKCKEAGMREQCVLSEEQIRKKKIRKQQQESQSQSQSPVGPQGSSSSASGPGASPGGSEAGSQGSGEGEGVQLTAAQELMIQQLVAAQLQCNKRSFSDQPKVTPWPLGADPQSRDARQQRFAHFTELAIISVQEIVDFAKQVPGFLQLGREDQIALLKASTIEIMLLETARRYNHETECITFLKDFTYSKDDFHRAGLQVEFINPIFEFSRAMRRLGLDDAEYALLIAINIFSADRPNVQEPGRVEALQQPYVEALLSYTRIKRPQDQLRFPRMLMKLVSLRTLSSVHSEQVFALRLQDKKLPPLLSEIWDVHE
In words: LXR agonists, Gal4 luciferase reporter, dose response, counter-screen for ssDAF-12 agonist project, cell-based, luminescence, HEK293, S. stercoralis campaign (AID 720737). To be noted: read-out: IC50 (the source's name). The format is functional. (In general: Reporter assays use an easily measured gene product as a stand-in for the process of interest.)

Assay [9] has as its target Genome polyprotein (dengue virus type 2, UniProt P29990). In words: Dengue-2 NS5 methyltransferase inhibitors, primary screen, biochemical, confirmation dose response (AID 588689). The format is functional.
Assay [10] concerns the target Protein Tat (Human immunodeficiency virus type 1 group M subtype B (isolate HXB2)(HIV-1), UniProt P04608). It is filed as functional.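 Further: tat binding to TAR RNA read out by fluorescence polarization.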
In assay [11] the target is Heat shock protein HSP 90-alpha (Homo sapiens, UniProt P07900). In words: Luminescence-based dose response biochemical high throughput screening assay for inhibitors of the Heat Shock Protein 90 (HSP90). [Related pubchem assays: 1831 (Summary AID.), 1846 (Confirmation screen.), 1789 (Primary screen.)].
The target of assay [12] is Disintegrin and metalloproteinase domain-containing protein 17 (Homo sapiens, UniProt P78536). In words: exosite inhibitors of ADAM17, dose response, biochemical (AID 743260).
Assay [13] in a line: ADAM10 protease inhibitors, dose response, selectivity assay for ADAM17 exosite inhibitor project, biochemical, FRET peptide substrate, recombinant human ADAM10 (AID 743259).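 Further: ADAM10 enzyme cleaving a FRET peptide substrate.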
Assay [14] has as its system Vero. In words: host cell cytotoxicity of antiviral hits, dose response, cytotoxicity control for West Nile virus antiviral project, secondary assay (AID 1650). It is filed as functional. The note with it: Chlorocebus sabaeus.

Ephrin type-A receptor 4, sequence (Q03137 whole entry): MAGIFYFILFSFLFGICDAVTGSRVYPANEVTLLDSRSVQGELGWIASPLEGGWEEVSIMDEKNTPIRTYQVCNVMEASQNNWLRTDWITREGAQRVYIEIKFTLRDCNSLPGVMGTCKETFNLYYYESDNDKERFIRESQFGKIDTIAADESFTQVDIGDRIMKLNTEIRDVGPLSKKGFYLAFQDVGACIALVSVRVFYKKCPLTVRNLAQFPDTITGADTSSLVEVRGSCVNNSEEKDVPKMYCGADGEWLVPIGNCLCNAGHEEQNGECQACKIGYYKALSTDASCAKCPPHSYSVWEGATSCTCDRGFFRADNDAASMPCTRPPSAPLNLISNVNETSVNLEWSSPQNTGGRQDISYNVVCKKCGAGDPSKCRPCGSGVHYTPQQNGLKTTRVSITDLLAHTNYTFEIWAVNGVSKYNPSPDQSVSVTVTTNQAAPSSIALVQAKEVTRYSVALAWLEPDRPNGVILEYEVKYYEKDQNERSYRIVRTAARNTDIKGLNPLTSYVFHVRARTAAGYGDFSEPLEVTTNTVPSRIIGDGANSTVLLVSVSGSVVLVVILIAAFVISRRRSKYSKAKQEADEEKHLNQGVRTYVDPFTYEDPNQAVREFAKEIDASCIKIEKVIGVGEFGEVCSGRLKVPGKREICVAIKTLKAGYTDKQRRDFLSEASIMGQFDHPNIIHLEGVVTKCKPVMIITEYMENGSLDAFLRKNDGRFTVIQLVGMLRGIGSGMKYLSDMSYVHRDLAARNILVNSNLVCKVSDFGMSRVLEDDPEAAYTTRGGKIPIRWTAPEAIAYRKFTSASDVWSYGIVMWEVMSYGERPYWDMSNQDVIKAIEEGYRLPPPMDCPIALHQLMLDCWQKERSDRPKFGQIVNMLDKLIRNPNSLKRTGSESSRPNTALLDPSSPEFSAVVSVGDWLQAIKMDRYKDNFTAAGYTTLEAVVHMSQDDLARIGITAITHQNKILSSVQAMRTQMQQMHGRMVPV
Disintegrin and metalloproteinase domain-containing protein 17, sequence (P78536 whole entry, the tested form may be a part): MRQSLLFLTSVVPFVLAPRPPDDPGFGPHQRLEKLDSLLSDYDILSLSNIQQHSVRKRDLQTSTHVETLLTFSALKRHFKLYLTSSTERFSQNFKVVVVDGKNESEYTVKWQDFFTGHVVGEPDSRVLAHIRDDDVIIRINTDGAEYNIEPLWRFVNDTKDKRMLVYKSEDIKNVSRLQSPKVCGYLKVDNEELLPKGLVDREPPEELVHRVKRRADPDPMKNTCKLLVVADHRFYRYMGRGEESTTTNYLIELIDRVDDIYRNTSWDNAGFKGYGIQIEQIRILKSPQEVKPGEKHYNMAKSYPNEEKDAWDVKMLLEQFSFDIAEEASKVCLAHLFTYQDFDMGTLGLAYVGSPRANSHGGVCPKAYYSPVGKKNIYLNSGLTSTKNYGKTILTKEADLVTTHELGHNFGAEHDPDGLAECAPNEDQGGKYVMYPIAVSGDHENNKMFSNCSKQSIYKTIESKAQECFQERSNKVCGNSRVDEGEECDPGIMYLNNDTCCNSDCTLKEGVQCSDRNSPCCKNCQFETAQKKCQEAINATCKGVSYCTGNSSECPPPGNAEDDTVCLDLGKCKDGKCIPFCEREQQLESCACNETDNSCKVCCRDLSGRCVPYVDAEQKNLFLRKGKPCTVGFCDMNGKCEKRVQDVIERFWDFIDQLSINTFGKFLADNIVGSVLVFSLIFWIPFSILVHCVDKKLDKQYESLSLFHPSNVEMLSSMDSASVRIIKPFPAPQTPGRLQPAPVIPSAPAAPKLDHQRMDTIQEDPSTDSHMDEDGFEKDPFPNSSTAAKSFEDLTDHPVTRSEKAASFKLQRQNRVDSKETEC
Protein Tat, sequence (P04608 whole entry): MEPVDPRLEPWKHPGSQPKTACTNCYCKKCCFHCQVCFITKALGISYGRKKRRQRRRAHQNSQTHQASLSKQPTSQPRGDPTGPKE
Genome polyprotein, sequence (P29990 2492-3391 limits assumed): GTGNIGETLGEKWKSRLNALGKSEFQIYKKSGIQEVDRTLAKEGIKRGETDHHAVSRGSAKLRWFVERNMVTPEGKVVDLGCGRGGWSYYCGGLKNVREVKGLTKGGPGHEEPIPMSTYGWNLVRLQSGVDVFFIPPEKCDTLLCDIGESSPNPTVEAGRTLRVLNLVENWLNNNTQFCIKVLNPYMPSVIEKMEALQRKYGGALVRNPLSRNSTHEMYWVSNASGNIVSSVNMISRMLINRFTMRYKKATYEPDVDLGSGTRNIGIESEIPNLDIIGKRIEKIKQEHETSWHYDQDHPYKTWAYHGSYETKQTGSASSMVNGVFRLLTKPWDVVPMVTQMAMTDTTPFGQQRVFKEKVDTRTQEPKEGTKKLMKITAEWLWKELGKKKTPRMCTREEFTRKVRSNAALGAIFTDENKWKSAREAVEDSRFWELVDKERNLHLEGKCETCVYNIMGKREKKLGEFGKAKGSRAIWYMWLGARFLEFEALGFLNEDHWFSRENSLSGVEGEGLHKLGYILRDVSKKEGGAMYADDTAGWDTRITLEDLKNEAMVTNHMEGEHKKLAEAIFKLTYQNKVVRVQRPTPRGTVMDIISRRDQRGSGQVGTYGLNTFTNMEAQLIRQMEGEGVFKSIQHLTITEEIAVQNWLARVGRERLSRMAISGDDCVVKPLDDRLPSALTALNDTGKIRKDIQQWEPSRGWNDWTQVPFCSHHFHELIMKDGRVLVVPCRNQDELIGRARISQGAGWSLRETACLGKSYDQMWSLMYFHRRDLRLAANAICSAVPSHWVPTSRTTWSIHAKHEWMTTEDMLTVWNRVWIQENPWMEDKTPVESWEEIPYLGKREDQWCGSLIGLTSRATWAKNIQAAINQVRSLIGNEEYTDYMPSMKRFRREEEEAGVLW
Bifunctional protein GlmU, sequence (P9WMN3 whole entry): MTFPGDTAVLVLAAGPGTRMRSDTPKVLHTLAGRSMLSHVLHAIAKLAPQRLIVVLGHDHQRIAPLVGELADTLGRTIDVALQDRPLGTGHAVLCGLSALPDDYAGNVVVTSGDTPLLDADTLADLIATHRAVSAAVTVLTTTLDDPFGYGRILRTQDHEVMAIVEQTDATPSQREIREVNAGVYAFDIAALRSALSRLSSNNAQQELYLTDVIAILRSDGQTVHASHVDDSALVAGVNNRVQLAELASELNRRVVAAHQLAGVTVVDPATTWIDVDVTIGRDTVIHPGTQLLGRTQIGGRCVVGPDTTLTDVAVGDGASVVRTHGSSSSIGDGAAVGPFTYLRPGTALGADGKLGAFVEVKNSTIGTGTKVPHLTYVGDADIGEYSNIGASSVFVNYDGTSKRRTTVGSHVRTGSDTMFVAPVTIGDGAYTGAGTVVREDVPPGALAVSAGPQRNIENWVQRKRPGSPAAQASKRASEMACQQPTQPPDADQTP

The IC50 is the point on the concentration scale where inhibition reaches its midpoint. `CC(C)C1Cc2c(C#N)c(N)sc(=S)c2CO1` (configuration not stated): the half-inhibitory concentration (IC50) in [1] is 3.31 µM (active). Broadly, the AC50 is the concentration giving half of the maximal activity seen. With `CO[C@H]1CN(C)C(=O)c2ccc(NC(=O)c3ccc(Oc4ccccc4)cc3)cc2OC[C@H](C)NC[C@H]1C`, the half-maximal activity concentration (AC50) in assay [2] is 6.48 µM (active); in [3], 11.7 µM (active). For `Cc1ccc(CNC(=O)CCS(=O)(=O)c2ccc(Br)cc2)cc1`, in [4], the IC50 was 59.1 µM (active).

Take `O=C(O)C(=O)/C(=C\c1ccsc1)c1ccc2ccccc2n1`: the values for the EC50 in assay [5], in assay [6] and in [8] were 27.9 µM (active), 49 µM (active) and > 67.6 µM (inactive), respectively. Moreover, the IC50 in [7] is > 67.6 µM (inactive). Consider `O=C(O)c1ccc(-n2nc(C(F)(F)F)c3c2-c2ccoc2CC3)cc1`, for which the IC50 was 89 µM (active) in assay [9] and > 100 µM (active) in [10]. Take `Cc1c(-c2nc(-c3ccc(C(F)(F)F)cc3)no2)n(C)oc1=O`: the IC50 in assay [11] was 1.6 µM (active). Turning to `CCOC(=O)c1cc(OC(=O)c2ccccc2OC)n(-c2ccccc2)n1`, the IC50 is 19.7 µM (active) in assay [1], > 69.5 µM (inactive) in [12] and > 69.5 µM (inactive) in assay [13].

In general, CC50 refers to the concentration that lowers cell viability or growth by half. As for `COC(=O)C1=C(C(=O)OC)SC(=C2C(=S)C(C)(C)N(C(=O)CC(C)C)c3ccccc32)S1`, the CC50 in assay [14] is 49.5 µM (active). Turning to `COc1cc(CN2C[C@@H]3N[C@H](C2)[C@@H]3c2ccc(-c3ccc(C#N)cc3)cc2)cc(OC)c1`, the concentration at half-maximal activity (AC50) was 3.05 µM (active) in assay [2] and 10.5 µM (active) in assay [3].
